Data on 25 compounds can be found in patent publication US11773078B2, “Furin inhibitors” (Glaxosmithkline Intellectual Property Development Limited, priority 2018, dated 2023).

Molecules are shown by their SMILES. Counter-ions that a name gives are not always drawn.

The target of assay [1] is T1, furin (endogenous protease) in U20S cells (Homo sapiens, UniProt P09958).
T1 construct: the endogenous protease cleaves GFP; endogenous in cells; host or cells: U2OS cells transduced with a BacMam reporter
T1 sequence (P09958 108-794): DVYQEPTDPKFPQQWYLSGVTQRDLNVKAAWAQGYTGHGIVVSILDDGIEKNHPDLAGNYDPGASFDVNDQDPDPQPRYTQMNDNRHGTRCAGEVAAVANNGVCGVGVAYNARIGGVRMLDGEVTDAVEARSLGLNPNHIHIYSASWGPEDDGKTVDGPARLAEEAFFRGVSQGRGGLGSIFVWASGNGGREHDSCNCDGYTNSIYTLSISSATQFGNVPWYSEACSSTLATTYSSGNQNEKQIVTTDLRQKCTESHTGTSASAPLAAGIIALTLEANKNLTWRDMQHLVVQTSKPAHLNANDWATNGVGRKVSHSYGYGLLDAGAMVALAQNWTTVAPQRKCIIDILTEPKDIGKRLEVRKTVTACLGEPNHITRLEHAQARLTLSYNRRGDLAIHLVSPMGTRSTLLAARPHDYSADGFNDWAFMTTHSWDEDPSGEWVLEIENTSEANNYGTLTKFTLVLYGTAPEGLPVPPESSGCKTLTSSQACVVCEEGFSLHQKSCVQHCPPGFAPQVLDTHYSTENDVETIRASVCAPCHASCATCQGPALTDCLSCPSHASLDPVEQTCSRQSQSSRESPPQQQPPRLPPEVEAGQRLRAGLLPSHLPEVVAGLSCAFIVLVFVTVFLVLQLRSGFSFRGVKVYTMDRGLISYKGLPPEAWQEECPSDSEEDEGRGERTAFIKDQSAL
The assay is described as follows: Furin cell-based assay (image-based, Golgi-targeted GFP with BMP10 furin/PCSK cleavage site).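 Note: Read-out is mean GFP fluorescence of Golgi puncta per cell by high-content imaging, retained when furin inhibited, over an eleven-point 0.00017–10 µM series, four-parameter fit.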 The note with it: 24-hour incubation, read-out: furin golgi cell pXC50 (converted).

The target in assay [2] is T2, Furin (108-574-Tev-Flag-His) enzyme (Homo sapiens, UniProt P09958).
T2 construct: Furin (108-574-Tev-Flag-His) enzyme was expressed and purified from CHO cells; TEV cleavage site (C); FLAG (C); His (C); made in house; host or cells: CHO cells
T2 sequence (P09958 108-574): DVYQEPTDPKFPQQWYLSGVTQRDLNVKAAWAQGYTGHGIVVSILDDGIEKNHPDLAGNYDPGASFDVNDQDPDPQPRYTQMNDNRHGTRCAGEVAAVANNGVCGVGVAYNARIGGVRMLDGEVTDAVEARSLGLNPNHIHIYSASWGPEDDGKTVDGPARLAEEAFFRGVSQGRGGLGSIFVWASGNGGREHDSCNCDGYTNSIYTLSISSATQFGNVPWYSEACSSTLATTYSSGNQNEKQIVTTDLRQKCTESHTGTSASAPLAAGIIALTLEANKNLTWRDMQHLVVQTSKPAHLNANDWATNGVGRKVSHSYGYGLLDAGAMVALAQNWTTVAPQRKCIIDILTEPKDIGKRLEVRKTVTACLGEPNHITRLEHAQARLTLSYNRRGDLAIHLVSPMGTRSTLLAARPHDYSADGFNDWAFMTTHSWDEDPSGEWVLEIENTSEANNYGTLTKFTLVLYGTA
The assay is described as follows: Furin enzyme assay. The assay is classed as biochemical. The note with it: for IC50: read-out: furin enzyme pIC50 (converted). A digest of the protocol: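 CHO-expressed, purified furin construct at 40 pM in 100 mM HEPES pH7.5, 1 mM CaCl2, 0.005% Triton X-100. Eleven-point 1:3 series, 0.00017–10 μM final, incubated 2 h at room temperature and read on Envision. pXC50 from four-parameter fit.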

In the case of `CNCc1cc(Oc2ccc(NCCCN)nc2)cc(-c2cc(Cl)cc(Cl)c2)c1` [Example 101, N^1-(5-((3′,5′-Dichloro-5-((methylamino)methyl)-[1,1′-biphenyl]-3-yl)oxy)pyridin-2-yl)propane-1,3-diamine], in assay [1], the EC50 was 3160 nM. In addition, the “furin enzyme pIC50” value in assay [2] was found to be 8.6.
For `CNCc1cc(Oc2ccc(N3CCNC(C)(C)C3)nc2)cc(-c2cc(Cl)cc(Cl)c2)c1` [Example 102, 1-(3′,5′-Dichloro-5-((6-(3,3-dimethylpiperazin-1-yl)pyridin-3-yl)oxy)-[1,1′-biphenyl]-3-yl)-N-methylmethanamine, 3 hydrochloride], in assay [1], the EC50 was 15.8 nM. For the same compound, the “furin enzyme pIC50” value in assay [2] is listed as 9.2.
For `CNCc1cc(Oc2ccc(N3CCCNCC3)nc2)cc(-c2cc(Cl)cc(Cl)c2)c1` [Example 103], in assay [1], the EC50 was 63.1 nM. Also, the “furin enzyme pIC50” value in assay [2] was 8.9.
In the case of `CNCc1cc(Oc2ccc(N3CCN(C)CC3)nc2)cc(-c2cc(Cl)cc(Cl)c2)c1` [Example 104, 1-(3′,5′-dichloro-5-((6-(4-methylpiperazin-1-yl)pyridin-3-yl)oxy)-[1,1′-biphenyl]-3-yl)-N-methylmethanamine], in assay [1], the EC50 is 25.1 nM. Moreover, in assay [2], the “furin enzyme pIC50” value is 8.5.
For `CC(=O)NCC1CCN(Cc2cc(Oc3ccc(NCC(C)(C)N)nc3)cc(-c3cc(Cl)cc(Cl)c3)c2)CC1` [Example 105, N-((1-((5-((6-((2-Amino-2-methylpropyl)amino)pyridin-3-yl)oxy)-3′,5′-dichloro-[1,1′-biphenyl]-3-yl)methyl)piperidin-4-yl)methyl)acetamide, 3 hydrochloride], the EC50 in assay [1] was 126 nM. In addition, the “furin enzyme pIC50” value in assay [2] is on record as 9.
Consider `CC(=O)NCC1CCN(Cc2cc(Oc3ccc(N4CC[C@@H](N)[C@@H](F)C4)nc3)cc(-c3cc(Cl)cc(Cl)c3)c2)CC1` [Example 106, N-((1-((5-((6-((r/3)-4-Amino-3-fluoropiperidin-1-yl)pyridin-3-yl)oxy)-3′,5′-dichloro-[1,1′-biphenyl]-3-yl)methyl)piperidin-4-yl)methyl)acetamide, 3 hydrochloride], for which the EC50 in assay [1] was 3.16 nM. Also, in assay [2], the “furin enzyme pIC50” value is listed as 9.4.
On to `CC(=O)NCC1CCN(Cc2cc(Oc3ccc(N4CCN5C(=O)NCC5C4)nc3)cc(-c3cc(Cl)cc(Cl)c3)c2)CC1` (centres unmarked) [Example 107, N-((1-((3′,5′-Dichloro-5-((6-(3-oxohexahydroimidazo[1,5-a]pyrazin-7(1H)-yl)pyridin-3-yl)oxy)-[1,1′-biphenyl]-3-yl)methyl)piperidin-4-yl)methyl)acetamide, 2 hydrochloride], for which the EC50 in assay [1] is 5.01 nM. The “furin enzyme pIC50” value in assay [2] amounted to 9.
Turning to `CNCc1cc(Oc2ccc(N3CCC(N)CC3)nc2)nc(-c2cc(C)cc(Cl)c2)c1` [Example 108, 1-(5-((6-(3-Chloro-5-methylphenyl)-4-((methylamino)methyl)pyridin-2-yl)oxy)pyridin-2-yl)piperidin-4-amine, 4 hydrochloride], the EC50 in assay [1] was above 50100 nM. The “furin enzyme pIC50” value in assay [2] was 7.5.
For the compound `CC(=O)NCC1CCN(Cc2cc(Oc3cnc(N4CCNCC4)cn3)nc(-c3cc(Cl)cc(Cl)c3)c2)CC1` [Example 109, N-((1-((2-(3,5-Dichlorophenyl)-6-((5-(piperazin-1-yl)pyrazin-2-yl)oxy)pyridin-4-yl)methyl)piperidin-4-yl)methyl)acetamide], in assay [1], the EC50 was 15.8 nM. For the same compound, the “furin enzyme pIC50” value in assay [2] worked out at 9.6.
On to `CC(=O)NCC1CCN(Cc2cc(Oc3cnc(N4CCN(C)CC4)cn3)nc(-c3cc(Cl)cc(Cl)c3)c2)CC1` [Example 110, N-((1-((2-(3,5-Dichlorophenyl)-6-((5-(4-methylpiperazin-1-yl)pyrazin-2-yl)oxy)pyridin-4-yl)methyl)piperidin-4-yl)methyl)acetamide], for which, in assay [1], the EC50 was 2.51 nM. Also, the “furin enzyme pIC50” value in assay [2] is given as 10.3.
`CC(=O)NCC1CCN(Cc2cc(Oc3cnc(N4CCN(CCC(=O)O)CC4)cn3)nc(-c3cc(Cl)cc(Cl)c3)c2)CC1` [Example 111, 3-(4-(5-((4-((4-(Acetamidomethyl)piperidin-1-yl)methyl)-6-(3,5-dichlorophenyl)pyridin-2-yl)oxy)pyrazin-2-yl)piperazin-1-yl)propanoic acid]: the EC50 in assay [1] is 158 nM. The “furin enzyme pIC50” value in assay [2] came to 9.7.
For `O=C(O)CC1CCN(Cc2cc(Oc3cnc(N4CCNCC4)cn3)nc(-c3cc(Cl)cc(Cl)c3)c2)CC1` [Example 112, 2-(1-((2-(3,5-Dichlorophenyl)-6-((5-(piperazin-1-yl)pyrazin-2-yl)oxy)pyridin-4-yl)methyl)piperidin-4-yl)acetic acid], in assay [1], the EC50 is 126 nM. For the same compound, in assay [2], the “furin enzyme pIC50” value is 8.9.
In the case of `CC(=O)NCC1CCN(Cc2cc(Oc3cnc(N4CCN(CCCO)CC4)nc3)cc(-c3cc(Cl)cc(Cl)c3)c2)CC1` [Example 113, N-((1-((3′,5′-Dichloro-5-((2-(4-(3-hydroxypropyl)piperazin-1-yl)pyrimidin-5-yl)oxy)-[1,1′-biphenyl]-3-yl)methyl)piperidin-4-yl)methyl)acetamide], the EC50 in assay [1] is 12.6 nM. Also, the IC50 in assay [2] was below 0.158 nM.
Regarding `O=C(O)CCC1CCN(Cc2cc(Oc3cnc(N4CCN(CCO)CC4)nc3)cc(-c3cc(Cl)cc(Cl)c3)c2)CC1` [Example 114, 3-(1-((3′,5′-Dichloro-5-((2-(4-(2-hydroxyethyl)piperazin-1-yl)pyrimidin-5-yl)oxy)-[1,1′-biphenyl]-3-yl)methyl)piperidin-4-yl)propanoic acid], in assay [1], the EC50 is 20 nM. For the same compound, in assay [2], the IC50 is below 0.158 nM.
For `CC(=O)NCC1CCN(Cc2cc(Oc3ccc(N4CCN(CCC(=O)O)CC4)nc3)nc(-c3cc(F)cc(Cl)c3)c2)CC1` [Example 115, 3-(4-(5-((4-((4-(Acetamidomethyl)piperidin-1-yl)methyl)-6-(3-chloro-5-fluorophenyl)pyridin-2-yl)oxy)pyridin-2-yl)piperazin-1-yl)propanoic acid], the EC50 in assay [1] was 251 nM. Further, the “furin enzyme pIC50” value in assay [2] was 8.3.
The matching figures for `CC(=O)NCC1CCN(Cc2cc(Oc3ccc(N4CCN(CCC(=O)O)CC4)nc3)nc(-c3cc(F)cc(Br)c3)c2)CC1` [Example 116, 3-(4-(5-((4-((4-(Acetamidomethyl)piperidin-1-yl)methyl)-6-(3-bromo-5-fluorophenyl)pyridin-2-yl)oxy)pyridin-2-yl)piperazin-1-yl)propanoic acid]: 200 nM and 10.4.
For `CN1CCN(c2ncc(Oc3cc(CN4CCC(CC(=O)O)CC4)cc(-c4cc(Cl)cc(Cl)c4)c3)cn2)CC1` [Example 117, 2-(1-((3′,5′-Dichloro-5-((2-(4-methylpiperazin-1-yl)pyrimidin-5-yl)oxy)-[1,1′-biphenyl]-3-yl)methyl)piperidin-4-yl)acetic acid], the EC50 in assay [1] is 31.6 nM. Moreover, the “furin enzyme pIC50” value in assay [2] is on record as 9.2.
`CC(=O)NCC1CCN(Cc2cc(Oc3cnc(N4CCCNCC4)nc3)nc(-c3cc(Cl)cc(Cl)c3)c2)CC1` [Example 118, N-((1-((2-((2-(1,4-Diazepan-1-yl)pyrimidin-5-yl)oxy)-6-(3,5-dichlorophenyl)pyridin-4-yl)methyl)piperidin-4-yl)methyl)acetamide]: in assay [1], the EC50 is 15.8 nM. Also, in assay [2], the “furin enzyme pIC50” value was determined as 8.7.
Take `CC(=O)NCC1CCN(Cc2cc(Oc3cnc(N4CCC(N)CC4)nc3)nc(-c3cc(Cl)cc(Cl)c3)c2)CC1` [Example 119, N-((1-((2-((2-(4-aminopiperidin-1-yl)pyrimidin-5-yl)oxy)-6-(3,5-dichlorophenyl)pyridin-4-yl)methyl)piperidin-4-yl)methyl)acetamide]: in assay [1], the EC50 was 25.1 nM. Further, the “furin enzyme pIC50” value in assay [2] turned out to be 9.3.
`C[N+](C)([O-])CCC1CCN(Cc2cc(Oc3ccc(N4CCNCC4)nc3)nc(-c3cc(Cl)cc(Cl)c3)c2)CC1` [Example 120, 2-(1-((2-(3,5-dichlorophenyl)-6-((6-(piperazin-1-yl)pyridin-3-yl)oxy)pyridin-4-yl)methyl)piperidin-4-yl)-N,N-dimethylethanamine oxide]: in assay [1], the EC50 was 15.8 nM. Besides, the IC50 in assay [2] was 2 nM.
`CC(=O)NCC1CCN(Cc2cc(Oc3cnc(N4CCNCC4)c(F)c3)nc(-c3cc(Cl)cc(Cl)c3)c2)CC1` [Example 121, N-((1-((2-(3,5-dichlorophenyl)-6-((5-fluoro-6-(piperazin-1-yl)pyridin-3-yl)oxy)pyridin-4-yl)methyl)piperidin-4-yl)methyl)acetamide]: the EC50 in assay [1] was 31.6 nM. For the same compound, the “furin enzyme pIC50” value in assay [2] is 8.6.
`O=C(O)COC1CCN(Cc2cc(Oc3cnc(N4CCNCC4)nc3)nc(-c3cc(Cl)cc(Cl)c3)c2)CC1` [Example 122]: the EC50 in assay [1] was 79.4 nM. Further, in assay [2], the “furin enzyme pIC50” value is reported as 8.5.
For `O=C(O)CC1CCN(Cc2cc(Oc3cnc(N4CCNCC(O)C4)nc3)nc(-c3cc(Cl)cc(Cl)c3)c2)CC1` (centres unmarked) [Example 123, 2-(1-((2-(3,5-dichlorophenyl)-6-((2-(6-hydroxy-1,4-diazepan-1-yl)pyrimidin-5-yl)oxy)pyridin-4-yl)methyl)piperidin-4-yl)acetic acid], the EC50 in assay [1] is 100 nM. Further, the “furin enzyme pIC50” value in assay [2] was determined as 8.7.
As to `NC1(CCO)CCN(c2ncc(Oc3cc(CN4CCC(CC(=O)O)CC4)cc(-c4cc(Cl)cc(Cl)c4)n3)cn2)CC1` [Example 124, 2-(1-((2-((2-(4-amino-4-(2-hydroxyethyl)piperidin-1-yl)pyrimidin-5-yl)oxy)-6-(3,5-dichlorophenyl)pyridin-4-yl)methyl)piperidin-4-yl)acetic acid], in assay [1], the EC50 was 20 nM. For the same compound, the “furin enzyme pIC50” value in assay [2] was found to be 8.8.
For the compound `CP(C)(=O)CC1CCN(Cc2cc(Oc3cnc(N4CCNCC4)nc3)nc(-c3cc(Cl)cc(Cl)c3)c2)CC1` [Example 125], the EC50 in assay [1] is 50.1 nM. Further, the “furin enzyme pIC50” value in assay [2] turned out to be 8.
